# Measurements as given in patent publication US7671047B2, “Cationically substituted diphenylazetidinones, process for their preparation, medicaments comprising these compounds, and their use” (Sanofi-Aventis Deutschland GmbH, priority 2002, dated 2010).
# System: uptake of 14C-cholesterol by the liver (cholesterol absorption)
# Experiment: Cholesterol absorption test: uptake of 14C-cholesterol by the liver after peroral test meal
# Type: in vivo, NMRI mice
# Conditions: dose at which uptake of 14C-cholesterol by the liver was halved (50%) vs control group; test substance given perorally immediately prior to test meal; mouse
# Source text: Effect of the Compounds of the Invention on Cholesterol Absorption and ^3H-taurocholic Acid Excretion Using Fecal Excrement of Mice, Rats or Hamsters
# NMRI mice, Wistar rats, or Golden Syrian hamsters (in groups of n=4-6) were kept in metabolic cages, where they were fed with a standard diet (Altromin, Lage (Lippe)). The afternoon prior to the administration of the radioactive tracers (^14C-cholesterol), the feed was removed and the animals were adapted to grates.
# Additionally, the animals were labeled s.c. with ^3H-TCA (taurocholic acid) (for example 1 μCi/mouse up to 5 μCi/rat) 24 hours prior to the peroral administration of the test meal (^14C-cholesterol in Intralipid® 20, Pharmacia-Upjohn).
# Cholesterol absorption test: 0.25 ml/mouse Intralipid® 20 (Pharmacia-Upjohn) ((spiked with 0.25 μCi of ^14C-cholesterol in 0.1 mg of cholesterol) was administered perorally by gavage.
# Test substances were prepared separately in 0.5% methylcellulose (Sigma)/5% Solutol (BASF, Ludwigshafen) or a suitable vehicle.
# The administration volume of the test substance was 0.5 ml/mouse. The test substance was administered immediately prior to the test meal (Intralipid labeled with ^14C-cholesterol) (cholesterol absorption test).
# The feces were collected over a period of 24 h: fecal elimination of ^14C-cholesterol and ^3H-taurocholic acid (TCA) was determined after 24 hours.
# The livers were removed and homogenized, and aliquots were incinerated in an oximate (Model 307, Packard) to determine the amount of ^14C-cholesterol which had been taken up/absorbed.
# The amount of ^14C-cholesterol taken up by the liver was based on the administered dose. The ED50 values were interpolated from a dose-effect curve as the dose at which the uptake of ^14C-cholesterol by the liver was halved (50%), based on a control group.
row,Compound,ED50 (liver)
1,"N=C(N)c1ccc(C2C(CCC(O)c3ccc(F)cc3)C(=O)N2c2ccc(F)cc2)cc1 (centres unmarked) [II, 4-{1-(4-Fluorophenyl)-3-[3-(4-fluorophenyl)-3-hydroxypropyl]-4-oxoazetidin-2-yl}benzamidine]",0.1 mg/mouse
2,"O=C(CCCCCCCCCCC[N+]12CCN(CC1)CC2)NCc1ccc(C2C(CCC(O)c3ccc(F)cc3)C(=O)N2c2ccc(F)cc2)cc1.O=C([O-])C(F)(F)F (centres unmarked) [IX, 1-[11-(4-{1-(4-Fluorophenyl)-3-[3-(4-fluorophenyl)-3-hydroxypropyl]-4-oxoazetidin-2-yl}benzylcarbamoyl)undecyl]-4-aza-1-azoniabicyclo[2.2.2]octane trifluoroacetate]",0.1 mg/mouse
3,O=C(CCCCC[N+]12CCN(CC1)CC2)NCc1ccc(C2C(CCC(O)c3ccc(F)cc3)C(=O)N2c2ccc(F)cc2)cc1.O=C([O-])C(F)(F)F (centres unmarked) [VII],0.1 mg/mouse
4,"O=C(CCCCCCCCCCC[N+]12CCN(CC1)CC2)NCc1ccc(N2C(=O)C(CCC(O)c3ccccc3)C2c2ccccc2)cc1.O=C([O-])C(F)(F)F (centres unmarked) [X, 1-[11-{4-[3-(3-Hydroxy-3-phenylpropyl)-2-oxo-4-phenylazetidin-1-yl]benzylcarbamoyl}undecyl)-4-aza-1-azoniabicyclo[2.2.2]octane trifluoroacetate]",<1.0 mg/mouse
5,"COc1ccc(C2C(CCC(O)c3ccc(F)cc3)C(=O)N2c2ccc(CNC(=O)CCCCCCCCCCC[N+]34CCN(CC3)CC4)cc2)cc1.O=C([O-])C(F)(F)F (centres unmarked) [XI, 1-[11-{4-[3-[3-(4-Fluorophenyl)-3-hydroxypropyl]-2-(4-methoxyphenyl)-4-oxoazetidin-1-yl]benzylcarbamoyl}undecyl)-4-aza-1-azoniabicyclo[2.2.2]octane trifluoroacetate]",0.3 mg/mouse
